{"source": "paper PMC6016738", "about": "(European journal of medicinal chemistry, 2018)", "key": {"[1]": {"target": "E. coli DNA gyrase (Escherichia coli, UniProt P0AES6)", "test": "E. coli DNA gyrase supercoiling assay"}, "[2]": {"test_system": "E. faecalis ATCC 29212", "test": "Antibacterial activity", "format": "cell-based, Enterococcus faecalis", "conditions": "for inhibition at 50 µM: Enterococcus faecalis, ATCC29212, read-out: growth inhibition of E. faecalis"}, "[3]": {"target": "E. coli topoisomerase IV (Escherichia coli, UniProt P20083)", "sequence (P20083 whole entry)": "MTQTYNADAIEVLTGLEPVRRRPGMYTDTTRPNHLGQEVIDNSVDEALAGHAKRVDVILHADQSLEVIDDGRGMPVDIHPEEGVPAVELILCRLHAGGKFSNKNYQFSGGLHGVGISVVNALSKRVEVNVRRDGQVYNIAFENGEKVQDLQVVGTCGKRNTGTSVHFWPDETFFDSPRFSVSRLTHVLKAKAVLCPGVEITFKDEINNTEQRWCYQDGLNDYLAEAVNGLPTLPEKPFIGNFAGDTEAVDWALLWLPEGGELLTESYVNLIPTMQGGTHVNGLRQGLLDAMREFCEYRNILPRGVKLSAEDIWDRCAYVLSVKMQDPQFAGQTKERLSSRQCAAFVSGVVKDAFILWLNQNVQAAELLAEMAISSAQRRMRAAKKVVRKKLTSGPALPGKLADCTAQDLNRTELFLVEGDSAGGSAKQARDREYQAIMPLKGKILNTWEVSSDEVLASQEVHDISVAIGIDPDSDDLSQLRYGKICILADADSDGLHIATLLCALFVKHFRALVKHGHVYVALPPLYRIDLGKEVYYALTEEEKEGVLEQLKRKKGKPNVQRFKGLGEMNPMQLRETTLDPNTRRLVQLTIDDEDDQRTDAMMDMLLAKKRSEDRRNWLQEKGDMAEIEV", "sequence (P0AFI2 whole entry partner)": "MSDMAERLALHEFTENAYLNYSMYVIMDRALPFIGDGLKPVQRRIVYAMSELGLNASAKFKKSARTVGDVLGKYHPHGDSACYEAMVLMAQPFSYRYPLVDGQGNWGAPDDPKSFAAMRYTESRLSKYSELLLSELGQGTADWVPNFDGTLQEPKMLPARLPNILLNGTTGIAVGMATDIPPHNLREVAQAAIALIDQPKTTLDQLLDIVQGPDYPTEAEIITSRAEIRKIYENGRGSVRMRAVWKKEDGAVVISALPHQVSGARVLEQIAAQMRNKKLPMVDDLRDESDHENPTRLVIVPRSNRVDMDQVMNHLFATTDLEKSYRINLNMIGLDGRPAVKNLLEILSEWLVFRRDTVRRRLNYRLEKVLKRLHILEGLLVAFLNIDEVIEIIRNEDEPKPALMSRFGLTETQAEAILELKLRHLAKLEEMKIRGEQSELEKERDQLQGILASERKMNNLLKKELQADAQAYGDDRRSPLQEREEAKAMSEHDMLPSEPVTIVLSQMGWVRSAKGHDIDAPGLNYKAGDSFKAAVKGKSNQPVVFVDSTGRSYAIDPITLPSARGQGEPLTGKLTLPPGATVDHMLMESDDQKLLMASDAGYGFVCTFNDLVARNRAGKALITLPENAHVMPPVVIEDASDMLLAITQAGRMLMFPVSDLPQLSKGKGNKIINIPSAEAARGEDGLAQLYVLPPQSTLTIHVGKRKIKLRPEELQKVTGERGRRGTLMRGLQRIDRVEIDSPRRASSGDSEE", "test": "E. coli topoisomerase IV inhibition assay", "conditions": "for IC50: IC50 E. coli topo IV; for remaining activity at 1 µM: read-out: RA (residual activity) E. coli topo IV"}, "[4]": {"test_system": "S. aureus ATCC 25923", "test": "Antibacterial activity", "format": "cell-based", "conditions": "Staphylococcus aureus, ATCC25923, read-out: growth inhibition of S. aureus"}, "[5]": {"test_system": "E. coli JW5503 ΔtolC", "test": "Antibacterial activity", "format": "cell-based, Escherichia coli", "conditions": "inhibitor concentration 50 μM"}, "[6]": {"test": "Growth inhibition of the bacterial panel at 50 μM", "format": "cell-based", "conditions": "read-out: growth inhibition of bacteria (all tested strains, Table 1S)"}, "[7]": {"test_system": "E. coli (ATCC 25922)", "test": "MIC broth micro-dilution", "format": "cell-based, Escherichia coli"}, "[8]": {"test_system": "E. coli (MG1655)", "test": "MIC broth micro-dilution", "format": "cell-based, Escherichia coli"}, "[9]": {"test_system": "E. coli (BW 25113)", "test": "MIC broth micro-dilution", "format": "cell-based, Escherichia coli"}, "[10]": {"test_system": "HepG2 cells", "conditions": "read-out: IC50 HepG2; literature value; cited from earlier work"}, "[11]": {"test_system": "HUVEC cells", "conditions": "read-out: IC50 HUVEC; literature value; cited from earlier work"}}, "data": [{"molecule": "4,5-Dibromo-N-(2-isopropoxy-4-((pyridin-2-ylmethyl)carbamoyl)phenyl)-1H-pyrrole-2-carboxamide [Compound 15a]", "values": [{"measurement": "RA (residual activity) E. coli gyrase", "setting": "[1]; residual activity of the enzyme at 1 μM of the compound", "result": 100, "unit": "%"}]}, {"molecule": "CC(C)Oc1cc(C(=O)N[C@H](C(=O)O)C(C)C)ccc1NC(=O)c1cc(Br)c(Br)[nH]1", "note": "[Compound 8a, (4-(4,5-Dibromo-1H-pyrrole-2-carboxamido)-3-isopropoxybenzoyl)-L-valine]", "values": [{"measurement": "inhibition at 50 µM", "setting": "[2]", "result": "> 80", "unit": "%"}]}, {"molecule": "Cc1[nH]c(C(=O)Nc2ccc(C(=O)N[C@@H](Cc3ccccc3)C(=O)O)cc2OC(C)C)c(Cl)c1Cl", "note": "[Compound 8d]", "values": [{"measurement": "inhibition at 50 µM", "setting": "[2]", "result": "> 80", "unit": "%"}]}, {"molecule": "Cc1[nH]c(C(=O)Nc2ccc(C(=O)N[C@@H](C)C(=O)O)cc2OC(C)C)c(Cl)c1Cl", "note": "[Compound 8e]", "values": [{"measurement": "inhibition at 50 µM", "setting": "[2]", "result": "> 80", "unit": "%"}, {"measurement": "IC50", "setting": "[3]", "result": "< 1000", "unit": "nM"}]}, {"molecule": "Cc1[nH]c(C(=O)Nc2ccc(C(=O)N[C@H](C)C(=O)O)cc2OC(C)C)c(Cl)c1Cl", "note": "[Compound 8f]", "values": [{"measurement": "inhibition at 50 µM", "setting": "[2]", "result": "> 80", "unit": "%"}]}, {"molecule": "Cc1[nH]c(C(=O)Nc2ccc(C(=O)N[C@@H](C)C(=O)O)cc2OCCNC(=O)OC(C)(C)C)c(Cl)c1Cl", "note": "[Compound 8i]", "values": [{"measurement": "remaining activity at 1 µM", "setting": "[3]", "result": 100, "unit": "%"}]}, {"molecule": "COC(=O)[C@H](Cc1ccccc1)NC(=O)c1ccc(NC(=O)c2cc(Br)c(Br)[nH]2)c(OCCN)c1", "note": "[Compound 9a, (S)-2-(2-(4,5-Dibromo-1H-pyrrole-2-carboxamido)-5-((1-methoxy-1-oxo-3-phenylpropan-2-yl)carbamoyl)phenoxy)ethan-1-aminium chloride]", "values": [{"measurement": "inhibition at 50 µM", "setting": "[4]", "result": "> 80", "unit": "%"}, {"measurement": "inhibition at 50 µM", "setting": "[2]", "result": "> 80", "unit": "%"}]}, {"molecule": "COC(=O)[C@H](C)NC(=O)c1ccc(NC(=O)c2[nH]c(C)c(Cl)c2Cl)c(OCCN)c1.Cl", "note": "[Compound 9b]", "values": [{"measurement": "inhibition at 50 µM", "setting": "[4]", "result": "> 80", "unit": "%"}, {"measurement": "inhibition at 50 µM", "setting": "[2]", "result": "> 80", "unit": "%"}, {"measurement": "growth inhibition of E. coli JW5503 ΔtolC", "setting": "[5]", "result": "completely suppressed"}]}, {"molecule": "NCCOc1cc(C(=O)NCC(=O)O)ccc1NC(=O)c1cc(Br)c(Br)[nH]1", "note": "[Compound 9c]", "values": [{"measurement": "inhibition at 50 µM", "setting": "[6]", "result": "< 36", "unit": "%"}]}, {"molecule": "NCCOc1cc(C(=O)N[C@@H](Cc2ccccc2)C(=O)O)ccc1NC(=O)c1cc(Br)c(Br)[nH]1", "note": "[Compound 9d]", "values": [{"measurement": "inhibition at 50 µM", "setting": "[6]", "result": "< 36", "unit": "%"}]}, {"molecule": "Cc1[nH]c(C(=O)Nc2ccc(C(=O)N[C@@H](C)C(=O)O)cc2OCCN)c(Cl)c1Cl", "note": "[Compound 9e]", "values": [{"measurement": "inhibition at 50 µM", "setting": "[6]", "result": "< 36", "unit": "%"}, {"measurement": "IC50", "setting": "[3]", "result": "< 1000", "unit": "nM"}]}, {"molecule": "Cc1[nH]c(C(=O)Nc2ccc(C(=O)N[C@@H](C)C(=O)NN)cc2OC(C)C)c(Cl)c1Cl", "note": "[Compound 10a, (S)-3,4-Dichloro-N-(4-((1-hydrazineyl-1-oxopropan-2-yl)carbamoyl)-2-isopropoxyphenyl)-5-methyl-1H-pyrrole-2-carboxamide]", "values": [{"measurement": "inhibition at 50 µM", "setting": "[2]", "result": "> 80", "unit": "%"}, {"measurement": "remaining activity at 1 µM", "setting": "[3]", "result": 100, "unit": "%"}]}, {"molecule": "Cc1[nH]c(C(=O)Nc2ccc(C(=O)N[C@@H](C)c3n[nH]c(=O)o3)cc2OC(C)C)c(Cl)c1Cl", "note": "[Compound 11a, (S)-3,4-Dichloro-N-(2-isopropoxy-4-((1-(5-oxo-4,5-dihydro-1,3,4-oxadiazol-2-yl)ethyl)carbamoyl)phenyl)-5-methyl-1H-pyrrole-2-carboxamide]", "values": [{"measurement": "inhibition at 50 µM", "setting": "[4]", "result": "> 80", "unit": "%"}, {"measurement": "inhibition at 50 µM", "setting": "[2]", "result": "> 80", "unit": "%"}, {"measurement": "MIC", "setting": "[7]; Escherichia coli, ATCC25922, read-out: MIC E. coli (ATCC 25922)", "result": "> 50", "unit": "µM"}, {"measurement": "MIC E. coli (ATCC 25922)", "setting": "[7]; without PAβN", "result": "no bioactivity"}, {"measurement": "MIC", "setting": "[8]; Escherichia coli, MG1655, read-out: MIC E. coli (MG1655)", "result": "> 50", "unit": "µM"}, {"measurement": "MIC E. coli (MG1655)", "setting": "[8]; without PAβN", "result": "no bioactivity"}, {"measurement": "MIC", "setting": "[9]; Escherichia coli, read-out: MIC E. coli (BW 25113)", "result": "> 50", "unit": "µM"}, {"measurement": "MIC E. coli (BW 25113)", "setting": "[9]; without PAβN", "result": "no bioactivity"}]}, {"molecule": "Cc1[nH]c(C(=O)Nc2ccc(C(=O)N[C@@H](C)c3n[nH]c(=O)o3)cc2OCCNC(=O)OC(C)(C)C)c(Cl)c1Cl", "note": "[Compound 11b]", "values": [{"measurement": "inhibition at 50 µM", "setting": "[2]", "result": "> 80", "unit": "%"}]}, {"molecule": "Cc1[nH]c(C(=O)Nc2ccc(C(=O)N[C@@H](C)c3n[nH]c(=O)o3)cc2OCCN)c(Cl)c1Cl", "note": "[Compound 12, (S)-2-(2-(3,4-Dichloro-5-methyl-1H-pyrrole-2-carboxamido)-5-((1-(5-oxo-4,5-dihydro-1,3,4-oxadiazol-2-yl)ethyl)carbamoyl)phenoxy)ethan-1-aminium chloride]", "values": [{"measurement": "growth inhibition of E. faecalis", "setting": "[2]; inhibitor concentration 50 μM", "result": "no growth inhibition"}, {"measurement": "IC50", "setting": "[3]", "result": "< 1000", "unit": "nM"}]}, {"molecule": "O=C(O)CNC(=O)c1ccc(NC(=O)c2cc(Br)c(Br)[nH]2)cc1OCc1ccccc1", "note": "[Compound 23a, (2-(Benzyloxy)-4-(4,5-dibromo-1H-pyrrole-2-carboxamido)benzoyl)glycine]", "values": [{"measurement": "fold more active on E. coli gyrase than isopropoxy analogue 23c", "setting": "[1]; ratio of IC50 values", "result": 4, "unit": "fold"}, {"measurement": "IC50", "setting": "[3]", "result": "42000 ± 11000", "unit": "nM"}]}, {"molecule": "CC(C)Oc1cc(NC(=O)c2cc(Br)c(Br)[nH]2)ccc1C(=O)NCC(=O)O", "note": "[Compound 23c]", "values": [{"measurement": "remaining activity at 1 µM", "setting": "[3]", "result": 100, "unit": "%"}]}, {"molecule": "Cc1[nH]c(C(=O)Nc2ccc(C(=O)NCC(=O)O)c(OC(C)C)c2)c(Cl)c1Cl", "note": "[Compound 23d]", "values": [{"measurement": "remaining activity at 1 µM", "setting": "[3]", "result": 100, "unit": "%"}]}, {"molecule": "COc1cc([C@@H]2c3cc4c(cc3[C@@H](O[C@@H]3O[C@@H]5CO[C@@H](C)O[C@H]5[C@H](O)[C@H]3O)[C@H]3COC(=O)[C@H]23)OCO4)cc(OC)c1O", "note": "[Etoposide]", "values": [{"measurement": "IC50", "setting": "[10]", "result": 30200, "unit": "nM"}, {"measurement": "IC50", "setting": "[11]", "result": 1250, "unit": "nM"}]}]}
